Legend:
[1] = tested on: windgrass; experiment: Test Example 4: herbicidal effect by soil treatment (Table 19, symbol L); assay type: in vivo, windgrass (Apera spica-venti)
In short: (§1)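 Seeds were sown in sterilized diluvial soil and covered with about 1.5 cm of soil. An emulsion formulation diluted with water to a predetermined herbicide amount was sprayed evenly onto the soil surface. Plants grew in a greenhouse at 25° C. to 30° C., and the effect was scored three weeks after application using criteria from an earlier test.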

[2] = tested on: Japanese bulrush; experiment: Test Example 1: herbicidal activity, application before weed generation under submerged conditions (Table 16, symbol B); assay type: in vivo, Japanese bulrush (Schoenoplectus juncoides); conditions: 320 g/ha applied herbicide
In short: (§2)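 Emulsion formulation, water-diluted to set dose, was put onto the flooded surface (4 cm depth, alluvial soil) the same day weeds were sown and 2.5-leaf rice transplanted. After 3 weeks at 25-30 °C under glass, each species was rated 0 (≤5% kill) to 5 (≥90% kill).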

[3] = tested on: oval-leafed pondweed; experiment: Test Example 2: herbicidal activity, application during weed generation under submerged conditions (Table 17, symbol C); assay type: in vivo, oval-leafed pondweed (Monochoria vaginalis); conditions: AAH 320 g/ha; application during weed generation, submerged conditions
In short: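 Alluvial soil in Wagner pots was flooded to 4 cm depth and sown with the three weeds together; pots were kept in a greenhouse at 25° C. to 30° C. At the one to two leaf stage, an emulsion formulation diluted in water to a set rate went onto the water surface; scored three weeks later.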

[4] = tested on: persian speedwell; experiment: Test Example 4: herbicidal effect by soil treatment (Table 19, symbol R); assay type: in vivo, Persian speedwell (Veronica persica)
In short: as §1

[5] = tested on: chickweed; experiment: Test Example 5: herbicidal effect by foliage application, plastic box (Table 20, symbol P); assay type: in vivo, common chickweed (Stellaria media); conditions: foliage application, three weeks after application; for herbicidal effect grade, P: chickweed: 320 g/ha
In short: (§3)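 Plants sown in sterilized diluvial soil and grown 14 days in a greenhouse at 25° C to 30° C, then sprayed on the foliage with the compound's emulsion diluted in water to a predetermined herbicide amount. Injury to weeds and crops scored three weeks after application on a visual rating scale.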

[6] = tested on: green foxtail; experiment: Test Example 5: herbicidal effect by foliage application, plastic box (Table 20, symbol G); assay type: in vivo, green foxtail (Setaria viridis); conditions: foliage application; for herbicidal effect grade, G: green foxtail / effect on green foxtail (G): 320 g/ha; for effect on green foxtail (G): 3 weeks after application
In short: as §3

[7] = tested on: blackgrass; experiment: Test Example 4: herbicidal effect by soil treatment (Table 19, symbol J); assay type: in vivo, blackgrass (Alopecurus myosuroides)
In short: as §1

[8] = tested on: Chinese sprangletop; experiment: Test Example 3: herbicidal effect by foliage application, Wagner pot (Table 18, symbol D); assay type: in vivo, chinese sprangletop (Leptochloa chinensis); conditions: 320 g/ha
In short: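 Plants were sown in alluvial soil held under 0.1–0.5 cm standing water and grown 14 days in a greenhouse at 25–30 °C. An emulsifiable formulation, water-diluted to the set dose, was then sprayed onto the foliage, and effects were scored three weeks later using previously defined criteria.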

[9] = tested on: velvetleaf; experiment: Test Example 5: herbicidal effect by foliage application, plastic box (Table 20, symbol M); assay type: in vivo, velvetleaf (Abutilon theophrasti); conditions: foliage application; for herbicidal effect grade, M: velvetleaf / effect on velvetleaf (M): 320 g/ha; for effect on velvetleaf (M): 3 weeks after application
In short: as §3

[10] = tested on: late watergrass; experiment: Test Example 1: herbicidal activity, application before weed generation under submerged conditions (Table 16, symbol A); assay type: in vivo, late watergrass (Echinochloa oryzicola); conditions: 320 g/ha applied herbicide
In short: as §2

[11] = tested on: oval-leafed pondweed; experiment: Test Example 1: herbicidal activity, application before weed generation under submerged conditions (Table 16, symbol C); assay type: in vivo, oval-leafed pondweed (Monochoria vaginalis); conditions: 320 g/ha applied herbicide
In short: as §2

[12] = amount of applied herbicide 320 g/ha
[13] = AAH 320 g/ha, three weeks after application

| SMILES | herbicidal effect rating, L: windgrass [1, 12] | Herbicidal effect on B: Japanese bulrush (grade 0-5) [2] | herbicidal effect rating, C: oval-leafed pondweed [3] | herbicidal effect rating, R: persian speedwell [4, 12] | herbicidal effect grade, P: chickweed [5] | herbicidal effect grade, G: green foxtail ([6]; three weeks after application) | herbicidal effect rating, J: blackgrass [7, 12] | herbicidal effect on D (Chinese sprangletop), rating 0-5 [8] | herbicidal effect grade, M: velvetleaf ([9]; three weeks after application) | Herbicidal effect on A: late watergrass (grade 0-5) [10] | Herbicidal effect on C: oval-leafed pondweed (grade 0-5) [11] | P: chickweed, herbicidal effect ([5]; AAH 320 g/ha) | G: green foxtail, herbicidal effect [6, 13] | M: velvetleaf, herbicidal effect [9, 13] | herbicidal effect rating, L: windgrass ([1]; 320 g/ha) | herbicidal effect rating, R: persian speedwell ([4]; 320 g/ha) | effect on green foxtail (G) [6] | herbicidal effect rating, J: blackgrass ([7]; 320 g/ha) | effect on velvetleaf (M) [9] |
| --- | --- | --- | --- | --- | --- | --- | --- | --- | --- | --- | --- | --- | --- | --- | --- | --- | --- | --- | --- |
| CCCC(=O)Oc1c(C)nn(C)c(=O)c1-c1c(-c2ccc(OCC)cc2)sc2ccccc12 [1-014] | 0 (Herbicidal rate of 5% or less (almost no effect)) | 5 (Herbicidal rate of 90% or more (almost completely withered)) | 3 (Herbicidal rate of 40% or more and less than 70%) | 5 (Herbicidal rate of 90% or more (almost completely withered)) | 5 (Herbicidal rate of 90% or more (almost completely withered)) | 4 (Herbicidal rate of 70% or more and less than 90%) | 0 (Herbicidal rate of 5% or less (almost no effect)) | 0 (Herbicidal rate of 5% or less (almost no effect)) | 4 (Herbicidal rate of 70% or more and less than 90%) | 5 (Herbicidal rate of 90% or more (almost completely withered)) | 5 (Herbicidal rate of 90% or more (almost completely withered)) |  |  |  |  |  |  |  |  |
| CCCC(=O)Oc1c(C)nn(C)c(=O)c1-c1c(-c2ccc(OC)c(OC)c2)sc2ccccc12 [1-073] | 1 (Herbicidal rate of 5% or more and less than 20%) | 4 (Herbicidal rate of 70% or more and less than 90%) | 5 (Herbicidal rate of 90% or more (almost completely withered)) | 5 (Herbicidal rate of 90% or more (almost completely withered)) | 5 (Herbicidal rate of 90% or more (almost completely withered)) | 5 (Herbicidal rate of 90% or more (almost completely withered)) | 2 (Herbicidal rate of 20% or more and less than 40%) | 3 (Herbicidal rate of 40% or more and less than 70%) | 5 (Herbicidal rate of 90% or more (almost completely withered)) | 5 (Herbicidal rate of 90% or more (almost completely withered)) | 0 (Herbicidal rate of 5% or less (almost no effect)) |  |  |  |  |  |  |  |  |
| CCCC(=O)Oc1c(C)nn(C)c(=O)c1-c1c(-c2ccc3c(c2)OCCO3)sc2ccccc12 [1-090] | 0 (Herbicidal rate of 5% or less (almost no effect)) | 4 (Herbicidal rate of 70% or more and less than 90%) | 4 (Herbicidal rate of 70% or more and less than 90%) | 5 (Herbicidal rate of 90% or more (almost completely withered)) |  |  | 0 (Herbicidal rate of 5% or less (almost no effect)) | 1 (Herbicidal rate of 5% or more and less than 20%) |  | 5 (Herbicidal rate of 90% or more (almost completely withered)) | 5 (Herbicidal rate of 90% or more (almost completely withered)) | 4 (Herbicidal rate of 70% or more and less than 90%) | 5 (Herbicidal rate of 90% or more (almost completely withered)) | 4 (Herbicidal rate of 70% or more and less than 90%) |  |  |  |  |  |
| Cc1ccc(-c2sc3ccc(F)cc3c2-c2c(O)c(C)nn(C)c2=O)cc1 [2-012] |  | 0 (Herbicidal rate of 5% or less (almost no effect)) | 0 (Herbicidal rate of 5% or less (almost no effect)) |  |  |  |  | 5 (Herbicidal rate of 90% or more (almost completely withered)) |  | 3 (Herbicidal rate of 40% or more and less than 70%) | 0 (Herbicidal rate of 5% or less (almost no effect)) |  |  |  | 0 (Herbicidal rate of 5% or less (almost no effect)) | 5 (Herbicidal rate of 90% or more (almost completely withered)) | 5 (Herbicidal rate of 90% or more (almost completely withered)) | 0 (Herbicidal rate of 5% or less (almost no effect)) | 5 (Herbicidal rate of 90% or more (almost completely withered)) |
| CCCC(=O)Oc1c(C)nn(C)c(=O)c1-c1c(-c2ccc(C)cc2)sc2ccc(F)cc12 [2-013] |  | 2 (Herbicidal rate of 20% or more and less than 40%) | 3 (Herbicidal rate of 40% or more and less than 70%) |  |  |  |  | 5 (Herbicidal rate of 90% or more (almost completely withered)) |  | 3 (Herbicidal rate of 40% or more and less than 70%) | 2 (Herbicidal rate of 20% or more and less than 40%) |  |  |  | 0 (Herbicidal rate of 5% or less (almost no effect)) | 4 (Herbicidal rate of 70% or more and less than 90%) | 5 (Herbicidal rate of 90% or more (almost completely withered)) | 3 (Herbicidal rate of 40% or more and less than 70%) | 5 (Herbicidal rate of 90% or more (almost completely withered)) |
| CCCC(=O)Oc1c(C)nn(C)c(=O)c1-c1c(-c2ccc(OC(F)(F)F)cc2)sc2ccc(F)cc12 [2-046] |  | 4 (Herbicidal rate of 70% or more and less than 90%) | 0 (Herbicidal rate of 5% or less (almost no effect)) |  |  |  |  | 3 (Herbicidal rate of 40% or more and less than 70%) |  | 4 (Herbicidal rate of 70% or more and less than 90%) | 3 (Herbicidal rate of 40% or more and less than 70%) |  |  |  | 0 (Herbicidal rate of 5% or less (almost no effect)) | 5 (Herbicidal rate of 90% or more (almost completely withered)) | 5 (Herbicidal rate of 90% or more (almost completely withered)) | 0 (Herbicidal rate of 5% or less (almost no effect)) | 5 (Herbicidal rate of 90% or more (almost completely withered)) |
| Cc1nn(C)c(=O)c(-c2c(-c3ccc(OCCF)cc3)sc3ccc(F)cc23)c1O [2-047] |  | 3 (Herbicidal rate of 40% or more and less than 70%) | 2 (Herbicidal rate of 20% or more and less than 40%) |  |  |  |  | 4 (Herbicidal rate of 70% or more and less than 90%) |  | 3 (Herbicidal rate of 40% or more and less than 70%) | 2 (Herbicidal rate of 20% or more and less than 40%) |  |  |  | 0 (Herbicidal rate of 5% or less (almost no effect)) | 5 (Herbicidal rate of 90% or more (almost completely withered)) | 5 (Herbicidal rate of 90% or more (almost completely withered)) | 0 (Herbicidal rate of 5% or less (almost no effect)) | 5 (Herbicidal rate of 90% or more (almost completely withered)) |
